In brackets after ≈: the same amount, converted by molar mass. Entries after “also recorded” stand apart in the source; their conditions may differ.
Assays:
MDA468 cells = experiment: Combination index at IC50 with other anti-cancer agents in MDA468 cells; format: cell-based, human
[1] = tested on: DT-diaphorase expressing cells; experiment: Apoptosis by Annexin V binding, DT-diaphorase expressing cells; format: cell-based, human
Method: Based on the method described in Martin et al. (Journal of Experimental Medicine. 182, 1545-1556. 1995), the induction of apoptosis caused by the compounds of the present invention was determined.

physchem [2] = experiment: physchem
MDA-MB-468-NQ01 = experiment: In vivo hollow fibre assay, MDA-MB-468-NQ01; set-up: species or system mice
Method: (§1) The activity of Es5 (4.65) was evaluated in vivo against 3 cancer cell lines H460, MDA-MB-468-NQ01 and MDA-MB-468-MOCK using the in vivo hollow fibre assay (HFA), with fibres implanted at both intraperitoneal (i.p.) and subcutaneous (s.c.) sites. Es5 and the control agent Doxorubicin were administered as multiple doses by intraperitoneal injection (i.p.) on days 3, 4, 5 & 6 at 0.5 mg/kg/day and 2.5 mg/kg/day respectively.
(§2) Three human tumour cell lines were selected for analysis: H460 NSCLC (from ICT) and two breast carcinoma lines MDA-MB-468-NQ01 and MDA-MB-468-MOCK (both supplied by Onco-NX). Cells were cultured in RPMI 1640 cell culture medium supplemented with 1 mM sodium pyruvate, 2 mM L-glutamine and 10% foetal bovine serum (all from Sigma), and maintained as monolayer cultures at 37° C. in a humidified 5% CO2 environment.
(§3) Female Balb/C immunodeficient nude mice aged 6-8 weeks were used (Harlan UK, Blackthorn, UK). Mice were kept in cages housed in isolation cabinets in an air-conditioned room with regular alternating cycles of light and darkness. They received Teklad 2018 diet (Harlan, Blackthorn, UK) and water ad libitum. All animal procedures were carried out under a project licence issued by the UK Home Office and UKCCCR guidelines were followed throughout.
Cells were loaded into sterilised colour-coded PVDF Spectra/Por hollow fibres (HF) (Spectrum Medical Inc, Houston, Tex., USA). Briefly cells were harvested and resuspended in cell culture medium at the required cell density. This preparation was then loaded into the HF and the ends were clamped and heat-sealed. The HF was then cut into 1.5 cm lengths which were again heat-sealed at both ends, and then transferred to 6-well plates containing medium before implantation for the in vivo experiments, or were incubated at 37° C. in a humidified 5% CO2 environment for varying times before processing using the modified MTT assay as described below.
For the in vivo experiments, under brief inhalation anaesthesia (2% isoflurane), one loaded hollow fibre for each of the cell lines was transplanted intraperitoneally or subcutaneously on the dorsal flank of each mouse and the mice were allowed to recover. Each group consisted of 6 mice and the implantation day was termed ‘day 0’.
For assessment of the therapeutic response of Es5 (4.65), on days 3, 4, 5 & 6 mice were treated with Es5 (4.65) at 0.5 mg/kg/day or Doxorubicin at 2.5 mg/kg/day.
Mice were sacrificed on day 7 post-implantation, fibres removed, and cell survival analysed using a modified MTT assay, comparing absorbances seen for the treated groups with the corresponding untreated control group. Statistical analysis was carried out using a Student's t-test.

esterase = experiment: Degradation by porcine liver esterase; format: in vitro ADME; settings: pig, porcine liver esterase
From the text: (§4) The cleavage of Es5 by esterase and cell extracts and its activation were investigated.

porcine liver esterase = experiment: Degradation by porcine liver esterase; format: in vitro ADME; settings: in words
From the text: as §4

MDA-MB-468-MOCK = experiment: In vivo hollow fibre assay, MDA-MB-468-MOCK; settings: fibres at i.p. site; i.p. dosing days 3-6; nude mice; p<0.01
Method: as §1, §2
as §3, with “All animal procedures were carried out under a project licence issued by the UK Home Office and UKCCCR guidelines were followed throughout.” left out
Mice were sacrificed on day 7 post-implantation, fibres removed, and cell survival analysed using a modified MTT assay, comparing absorbances seen for the treated groups with the corresponding untreated control group. […]

physchem [3] = format: physicochemical
Method: The stability of esters and their hydrolysis products was measured in solution. (50 μM Es5 in Tris buffer (0.1 mol dm^−3) at pH 7.4). Samples were taken at timed intervals up to 24 hours and analysed by HPLC. The detection wavelength was 330 nm. Chromatographic analysis was carried out by isocratic elution with 30:70 MeOH: Tris buffer (0.1 mol dm^−3, pH 7.4), at 1 ml min^−1. The chromatographic separation of the drug was achieved using a Hypersil ODS column with 250 mm×4.6 mm I.D.

esterases [4] = experiment: Cell lysate esterase reaction, MDA468 cell extract; format: in vitro ADME, human; settings: human, MDA468 cell extract (cell lysate)
From the text: as §4
(§5) The degradation of Es5 by esterases from cell lysate of the two cell lines MDA NQ01 and MDA468 was investigated.

MDA468 cell extract = experiment: Cell lysate esterase reaction, MDA468 cell extract; format: in vitro ADME, human
From the text: as §4, §5

physchem [5] = format: physicochemical; settings: buffer, pH 7
porcine brain extracts = experiment: Cleavage by porcine brain extracts; format: in vitro ADME; settings: in words; result of porcine esterase repeated
From the text: as §4

[6] = tested on: DT-diaphorase null MDA468; experiment: DNA damage, Comet assay, DT-diaphorase null MDA468 cells; format: cell-based, human
Method: DNA damage was measured using the Comet assay to investigate the effect of Es5 on the comet head and tail intensities following treatment of MDA468NQ01 and the DT-diaphorase null MDA468 cell lines. […] Without wishing to be bound by any particular theory, the inventors believe that this must arise by a different mechanism such as 2×one electron reductions, rather than the 2 electron reduction that occurs with DT-diaphorase.

esterases [7] = experiment: Cell lysate esterase reaction, MDA NQ01 cell extract; format: in vitro ADME, human; settings: human, MDA NQ01 cell line extract (cell lysate)
From the text: as §4, §5

MDA NQ01 cell extract = experiment: as above; format: in vitro ADME, human
From the text: as §4, §5

NQ01 cells = experiment: Combination index at IC50 with other anti-cancer agents in NQ01 cells; format: cell-based, human
physchem [8] = experiment: physchem; remark: listed apart in the source

Structure (SMILES): CC(=O)OCCCC1=C(N2CC2)C(=O)C(C)=C(N2CC2)C1=O [Es5, Acetic Acid 3-(2,5-bis-aziridin-1-yl-4-methyl-3,6-dioxo-cyclohexa-1,4-dienyl)-propyl ester]
- Combination index at IC50 with ARC-C in MDA468 cells (MDA468 cells; with ARC-C): 1.2 (slight
- Combination index at IC50 with Cis-platinum in MDA468 (MDA468 cells): synergy
- Combination index at IC50 with Cis-platinum in MDA468 (MDA468 cells; listed as Es5 (4.65)): 0.567 (synergy)
- Combination index at IC50 with Docetaxel in MDA468 cells (MDA468 cells): moderately inhibitory effect
- Combination index at IC50 with Docetaxel in MDA468 cells (MDA468 cells; listed as Es5 (4.65)): 1.387 (moderately
- Combination index at IC50 with Epirubicin in MDA468 cells (MDA468 cells; with Epirubicin): 1.49 (antagonism)
- Combination Index at IC50 with Mitomycin C in MDA468 cells (MDA468 cells): slight antagonism
- Combination Index at IC50 with Mitomycin C in MDA468 cells (MDA468 cells; listed as Es5 (4.65)): 1.4 (slight
- Combination index at IC50 with cobalt chloride in MDA468 cells (MDA468 cells): strong synergy
- Combination index at IC50 with cobalt chloride in MDA468 cells (MDA468 cells; listed as Es5 (4.65)): 0.464 (strong
- time to induction of programmed cell death (Annexin V binding) [1]: ≤ 2 h
- solubility (physchem [2]; aqueous buffer): 150 µg/mL (≈ 0.493 mM)
- solubility (physchem [2]; organic solvent or mixture): 9400 µg/mL (≈ 30.9 mM)
- cell survival compared to the untreated control, MDA-MB-468-NQ01, i.p. site (MDA-MB-468-NQ01; fibres at i.p. site, i.p. dosing days 3-6, nude mice, p<0.01): significant efficacy
- efficacy in the NQ01-expressing compared to the Mock MDA-MB-468 cell line (MDA-MB-468-NQ01; hollow fibre assay): improved efficacy
- half-life (esterase): 1 min
- cleavage by porcine esterase to hydrolysis product (porcine liver esterase): rapidly cleaved
- cell survival compared to the untreated control, MDA-MB-468-MOCK, i.p. site (MDA-MB-468-MOCK): significant efficacy
- more stable than other esters based on RH1 (physchem [3]): > 20 times
- half-life at 50 μM (physchem [3]; buffer, pH 7.4): > 24 h
- half-life (esterases [4]): 4.67 h
- Degradation by MDA468 cell extract, rate (MDA468 cell extract; human, MDA468 cell extract (cell lysate)): (19.6 nmoles/hr/10^6 nmoles/hr/10^6 cells
- cleavage of the ester by MDA 468 cell extract (MDA468 cell extract; in words, compared with MDA468 NQ01 extract): much reduced rate; also recorded: appreciably lower rate
- half-life at 50 μM (physchem [5]): > 24 h
- cleavage by porcine brain extracts (porcine brain extracts): rapidly cleaved
- Comet assay tail intensity (DNA cross-linking) ([6]; DT-diaphorase deficient cell line, compared to H2O2 alone): did not reduce tail intensity
- Comet assay, DNA cross-linking after 6 hours of incubation ([6]; DT-diaphorase null cell line, 6 hours): evidence of cross-linking
- half-life (esterases [7]; Degradation by MDA NQ01 cell extract, t1/2): 2.67 h
- half-life (esterases [7]; room temperature, degraded to the alcohol 4.61, read-out: half-life in MDA NQ01 cell line extract): ~2.67 h
- Degradation by MDA NQ01 cell extract, rate (MDA NQ01 cell extract; human, MDA NQ01 cell line extract (cell lysate)): (11.25 nmoles/hr/10^6 nmoles/hr/10^6 cells
- cleavage of the ester by MDA468 NQ01 cell extract (MDA NQ01 cell extract; in words): rapidly cleaved
- Combination index at IC50 with ARA-C in NQ01 cells (NQ01 cells; with ARA-C): 1.22 (slight
- Combination index at IC50 with Cis-platinum in MDA NQ01 (NQ01 cells): synergy
- Combination index at IC50 with Cis-platinum in MDA NQ01 (NQ01 cells; listed as Es5 (4.65)): 0.674 (synergy)
- Combination index at IC50 with Docetaxel in NQ01 cells (NQ01 cells): additive effect
- Combination index at IC50 with Docetaxel in NQ01 cells (NQ01 cells; listed as Es5 (4.65)): 0.964 (additive)
- Combination index at IC50 with Epirubicin in NQ01 cells (NQ01 cells; with Epirubicin): 2.04 (antagonism)
- Combination Index at IC50 with Mitomycin C in NQ01 cells (NQ01 cells): additive effect
- Combination Index at IC50 with Mitomycin C in NQ01 cells (NQ01 cells; listed as Es5 (4.65)): 0.924 (additive)
- Combination index at IC50 with cobalt chloride in NQ01 cells (NQ01 cells): strong synergy
- Combination index at IC50 with cobalt chloride in NQ01 cells (NQ01 cells; listed as Es5 (4.65)): 0.54
- half-life (physchem [8]): < 24 h
